Drawing on patent publication US8748624B2, “Picolinamido-propanoic acid derivatives useful as glucagon receptor antagonists” (Janssen Pharmaceutica NV, priority 2011, dated 2014), this text covers Ki for 22 compounds.

The structures appear in SMILES notation.

A word on the Ki: it is a measure of affinity in units of concentration, obtained from inhibition or displacement. A lower Ki goes with tighter binding.

In experiment [1] the target is human glucagon receptor (GCGR) (Homo sapiens (Human), UniProt P47871). The experiment can be described thus: Inhibition of 125I-glucagon binding to membranes from HEK293 cells expressing the human glucagon receptor. The settings on record: membranes of hGluc-1 HEK cells, 125I-glucagon 0.3 nM, 2 hours room temperature; IC50 converted to Ki; average if tested more than once. Summed up:
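Compound displacement of ¹²⁵I-glucagon (0.3 nM) was run for 2 h at room temperature in 50 mM HEPES pH 7.4 with 5 mM MgCl2, 1 mM CaCl2 and 0.2% BSA, using 6 μg/well membranes from stably transfected hGCGR HEK293 cells. Filter-bound counts gave IC50s, expressed as Ki.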

In another experiment the target is human GCGR (Homo sapiens (Human), UniProt P47871). The experiment can be described thus: Cellular functional assay, cAMP readout (glucagon-stimulated cAMP in HEK293 cells expressing human GCGR). Conditions: hGluc-1 HEK cells, LANCE TR-FRET, IC50 converted to Ki, average if tested more than once. Type of experiment: cell-based. The method, boiled down:
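HEK293 cells stably transfected with full-length human GCGR were exposed to compound for 30 min before a 5-min challenge with […] (final) glucagon. Readout was TR-FRET (LANCE) cAMP versus standard curve; IC50s fitted by non-linear regression and converted to Ki values.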
On the technique in general: TR-FRET usually uses a lanthanide donor and a delayed reading to cut background.

human glucagon receptor (GCGR), sequence (P47871 26-477): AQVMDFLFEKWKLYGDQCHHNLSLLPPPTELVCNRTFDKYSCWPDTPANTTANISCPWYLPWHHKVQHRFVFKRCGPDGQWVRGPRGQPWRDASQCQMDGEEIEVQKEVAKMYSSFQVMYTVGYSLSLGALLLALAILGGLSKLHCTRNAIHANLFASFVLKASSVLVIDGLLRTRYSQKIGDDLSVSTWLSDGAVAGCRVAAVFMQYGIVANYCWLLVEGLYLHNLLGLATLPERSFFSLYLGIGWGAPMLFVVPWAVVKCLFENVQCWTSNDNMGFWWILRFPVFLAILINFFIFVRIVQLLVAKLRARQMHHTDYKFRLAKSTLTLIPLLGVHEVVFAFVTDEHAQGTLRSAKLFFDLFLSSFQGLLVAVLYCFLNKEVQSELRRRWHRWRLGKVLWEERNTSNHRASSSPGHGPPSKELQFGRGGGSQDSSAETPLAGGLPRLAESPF
human GCGR, sequence (P47871 26-477): as above

On to `Cc1cc(Cl)ccc1-c1ccc(NCc2cc(Cl)c(C(F)(F)F)cc2-c2ccc(C(=O)NCCC(=O)O)nc2)cc1` [Compound 77, 3-(5-(4-chloro-2-(((4′-chloro-2′-methyl-[1,1′-biphenyl]-4-yl)amino)methyl)-5-(trifluoromethyl)phenyl)picolinamido)propanoic acid], for which the Ki in experiment [1] was determined as 24.2 nM; on human GCGR it was 22.4 nM.

For `O=C(O)CCNC(=O)c1ccc(-c2cc(Cl)ccc2CNc2ccc(-c3ccc(F)c(Cl)c3)cc2)cn1` [Compound 150, 3-(5-(5-chloro-2-(((3′-chloro-4′-fluoro-[1,1′-biphenyl]-4-yl)amino)methyl)phenyl)picolinamido)propanoic acid], the inhibition constant Ki in experiment [1] amounted to 27.7 nM; on human GCGR, 73.3 nM.

On to `Cc1ccc(-c2ccc(NCc3ccc(Cl)cc3-c3ccc(C(=O)NCCC(=O)O)nc3)cc2Cl)cc1` [Compound 172, 3-(5-(5-chloro-2-(((2-chloro-4′-methyl-[1,1′-biphenyl]-4-yl)amino)methyl)phenyl)picolinamido)propanoic acid], for which the Ki in experiment [1] amounted to 26.9 nM; at human GCGR it was 69.2 nM.

`O=C(O)CCNC(=O)c1ccc(-c2cc(Cl)ccc2CNc2ccc(-c3ccc(F)cc3)c(F)c2)cn1` [Compound 88, 3-(5-(5-chloro-2-(((2,4′-difluoro-[1,1′-biphenyl]-4-yl)amino)methyl)phenyl)picolinamido)propanoic acid]: the Ki in experiment [1] was found to be 44.3 nM; on human GCGR, 370 nM.

Take `O=C(O)CCNC(=O)c1ccc(-c2cc(C(F)(F)F)ccc2CNc2ccc(-c3ccc(Cl)cc3F)cc2)cn1` [Compound 40, 3-(5-(2-(((4′-chloro-2′-fluoro-[1,1′-biphenyl]-4-yl)amino)methyl)-5-(trifluoromethyl)phenyl)picolinamido)propanoic acid]: the Ki in experiment [1] came out at 26.3 nM; at human GCGR, 64.2 nM.

With `N#Cc1cc(NCc2cc(F)c(F)cc2-c2ccc(C(=O)NCCC(=O)O)nc2)ccc1-c1ccc(F)c(C(F)(F)F)c1` [Compound 109, 3-(5-(2-(((2-cyano-4′-fluoro-3′-(trifluoromethyl)-[1,1′-biphenyl]-4-yl)amino)methyl)-4,5-difluorophenyl)picolinamido)propanoic acid], the inhibition constant (Ki) in experiment [1] turned out to be 30.4 nM; at human GCGR, 115 nM.

For `Cc1cc(NCc2c(Cl)cc(C(F)(F)F)cc2-c2ccc(C(=O)NCCC(=O)O)nc2)ccc1-c1ccc(Cl)cc1` [Compound 75, 3-(5-(3-chloro-2-(((4′-chloro-2-methyl-[1,1′-biphenyl]-4-yl)amino)methyl)-5-(trifluoromethyl)phenyl)picolinamido)propanoic acid], the Ki turned out to be 27.8 nM in experiment [1] and 6.7 nM at human GCGR.

Turning to `O=C(O)CCNC(=O)c1ccc(-c2cc(C(F)(F)F)ccc2CNc2ccc(-c3cccc(F)c3)cc2)cn1` [Compound 62, 3-(5-(2-(((3′-fluoro-[1,1′-biphenyl]-4-yl)amino)methyl)-5-(trifluoromethyl)phenyl)picolinamido)propanoic acid], the Ki in experiment [1] was found to be 37.4 nM; at human GCGR, 175 nM.

For `O=C(O)CCNC(=O)c1ccc(-c2cc(Cl)ccc2CNc2ccc(-c3ccccc3F)cc2)cn1` [Compound 133, 3-(5-(5-chloro-2-(((2′-fluoro-[1,1′-biphenyl]-4-yl)amino)methyl)phenyl)picolinamido)propanoic acid], the Ki in experiment [1] turned out to be 104 nM; on human GCGR it was 2000 nM.

For the compound `O=C(O)CCNC(=O)c1ccc(-c2cc(Cl)ccc2CNc2ccc(-c3ccc(Cl)cc3)cc2F)cn1` [Compound 12, 3-(5-(5-chloro-2-(((4′-chloro-3-fluoro-[1,1′-biphenyl]-4-yl)amino)methyl)phenyl)picolinamido)propanoic acid], the Ki in experiment [1] worked out at 53 nM; on human GCGR, 500 nM.

As for `Cc1cc(-c2ccc(NCc3ccc(Cl)cc3-c3ccc(C(=O)NCCC(=O)O)nc3)cc2Cl)ccc1F` [Compound 139, 3-(5-(5-chloro-2-(((2-chloro-4′-fluoro-3′-methyl-[1,1′-biphenyl]-4-yl)amino)methyl)phenyl)picolinamido)propanoic acid], the Ki was determined as 29.1 nM in experiment [1] and 120 nM at human GCGR.

With `O=C(O)CCNC(=O)c1ccc(-c2cc(Cl)ccc2CNc2ccc(-c3ccc(Cl)cc3Cl)cc2)cn1` [Compound 7, 3-(5-(5-chloro-2-(((2′,4′-dichloro-[1,1′-biphenyl]-4-yl)amino)methyl)phenyl)picolinamido)propanoic acid], the inhibitory constant (Ki) in experiment [1] turned out to be 22.4 nM; at human GCGR it was 44.8 nM.

`Cc1ccc(-c2ccc(NCc3cc(F)c(F)cc3-c3ccc(C(=O)NCCC(=O)O)nc3)cc2Cl)c(F)c1` [Compound 105, 3-(5-(2-(((2-chloro-2′-fluoro-4′-methyl-[1,1′-biphenyl]-4-yl)amino)methyl)-4,5-difluorophenyl)picolinamido)propanoic acid]: the Ki in experiment [1] is 33 nM; on human GCGR, 255 nM.

For `N#Cc1cc(NCc2cc(F)c(F)cc2-c2ccc(C(=O)NCCC(=O)O)nc2)ccc1-c1ccc(Cl)cc1F` [Compound 111, 3-(5-(2-(((4′-chloro-2-cyano-2′-fluoro-[1,1′-biphenyl]-4-yl)amino)methyl)-4,5-difluorophenyl)picolinamido)propanoic acid], the figures for the Ki (in experiment [1]; on human GCGR) were 69.6 nM and 180 nM, respectively.

As to `O=C(O)CCNC(=O)c1ccc(-c2cc(Cl)ccc2CNc2ccc(-c3ccc(C(F)(F)F)cc3Cl)cc2)cn1` [Compound 147, 3-(5-(5-chloro-2-(((2′-chloro-4′-(trifluoromethyl)-[1,1′-biphenyl]-4-yl)amino)methyl)phenyl)picolinamido)propanoic acid], the Ki in experiment [1] worked out at 15.7 nM; at human GCGR it was 60 nM.

As to `O=C(O)CCNC(=O)c1ccc(-c2cc(Cl)ccc2CNc2ccc(-c3ccc(Cl)c(F)c3)cc2F)cn1` [Compound 13, 3-(5-(5-chloro-2-(((4′-chloro-3,3′-difluoro-[1,1′-biphenyl]-4-yl)amino)methyl)phenyl)picolinamido)propanoic acid], the results for the Ki (in experiment [1]; at human GCGR) were 39.3 nM and 311 nM, respectively.

`Cc1ccc(C(=O)Nc2ccc(-c3ccc(Cl)cc3)cc2)c(-c2ccc(C(=O)NCCC(=O)O)nc2)c1` [Compound 145, 3-(5-(2-((4′-chloro-[1,1′-biphenyl]-4-yl)carbamoyl)-5-methylphenyl)picolinamido)propanoic acid]: the Ki in experiment [1] was 36.3 nM; on human GCGR, 68.1 nM.

With `O=C(O)CCNC(=O)c1ccc(-c2cc(F)c(F)cc2CNc2ccc(-c3ccc(F)c(C(F)(F)F)c3)c(Cl)c2)cn1` [Compound 102, 3-(5-(2-(((2-chloro-4′-fluoro-3′-(trifluoromethyl)-[1,1′-biphenyl]-4-yl)amino)methyl)-4,5-difluorophenyl)picolinamido)propanoic acid], the Ki in experiment [1] is 21.3 nM; at human GCGR, 41.8 nM.

For `O=C(O)CCNC(=O)c1ccc(-c2cc(Cl)ccc2CNc2ccc(-c3c(F)cccc3Cl)cc2)cn1` [Compound 141, 3-(5-(5-chloro-2-(((2′-chloro-6′-fluoro-[1,1′-biphenyl]-4-yl)amino)methyl)phenyl)picolinamido)propanoic acid], the Ki in experiment [1] came to 30.9 nM; on human GCGR it was 138 nM.

With `O=C(O)CCNC(=O)c1ccc(-c2cc(C3=CCCCC3)ccc2CNc2ccc(-c3ccc(F)cc3)cc2)cn1` [Compound 174, 3-(5-(4-(((4′-fluoro-[1,1′-biphenyl]-4-yl)amino)methyl)-2′,3′,4′,5′-tetrahydro-[1,1′-biphenyl]-3-yl)picolinamido)propanoic acid], the Ki was determined as 18.3 nM in experiment [1] and 110 nM on human GCGR.

Turning to `CC(C)(C)c1ccc(-c2ccc(NCc3ccc(Cl)cc3-c3ccc(C(=O)NCCC(=O)O)nc3)cc2Cl)cc1` [Compound 168, 3-(5-(2-(((4′-(tert-butyl)-2-chloro-[1,1′-biphenyl]-4-yl)amino)methyl)-5-chlorophenyl)picolinamido)propanoic acid], the inhibition constant Ki turned out to be 37.9 nM in experiment [1] and 370 nM at human GCGR.

Take `O=C(O)CCNC(=O)c1ccc(-c2ccccc2CNc2ccc(-c3ccc(C(F)(F)F)cc3)cc2)cn1` [Compound 9]: the values for the Ki (in experiment [1]; on human GCGR) were 95.7 nM and 550 nM, respectively.
